# Results published in patent US10457687B2, “Aminoacid derivatives, a process for their preparation and pharmaceutical compositions containing them” (LES LABORATOIRES SERVIER, priority 2015, dated 2019).
# Target: Mcl-1 protein (Homo sapiens, UniProt Q07820)
# Test: Inhibition of Mcl-1 by the fluorescence polarisation technique (Method 1 or Method 2)
# Format: binding
# Conditions: for IC50: fluorescence polarisation, Fluorescein labelled ligand, Method 1 (not underlined) or Method 2 (underlined), read-out: IC50 (μM) Mcl-1 FP
# Description: The relative binding potency of each compound was determined via Fluorescence Polarisation (FP).
# An 11 point serial dilution of each compound was prepared in DMSO and 2 μl transferred into flat bottomed, low binding, 384-well plate (final DMSO concentration 5%). 38 μl of buffer (10 mM 4-(2-hydroxyethyl)-1-piperazineethanesulfonic acid [HEPES], 150 mM NaCl, 0.05% Tween 20, pH 7.4), containing the Fluorescein labelled ligand (final concentration 1 nM) and Mcl-1 protein (final concentration 5 nM) was then added.
# An 11 point serial dilution of each compound was prepared in DMSO and 2 μl transferred into flat bottomed, low binding, 384-well plate (final DMSO concentration 5%). 38 μl of buffer (20 mM Na2HPO4, 1 mM EDTA, 50 mM NaCl, pH 7.4), containing the Fluorescein labelled ligand (final concentration 10 nM) and Mcl-1 protein (final concentration 10 nM) was then added.
# [1] = partial inhibitors, @ 50 μM test compound
# [2] = partial inhibitors, @ 200 μM test compound
# Mcl-1 protein, sequence (Q07820 whole entry): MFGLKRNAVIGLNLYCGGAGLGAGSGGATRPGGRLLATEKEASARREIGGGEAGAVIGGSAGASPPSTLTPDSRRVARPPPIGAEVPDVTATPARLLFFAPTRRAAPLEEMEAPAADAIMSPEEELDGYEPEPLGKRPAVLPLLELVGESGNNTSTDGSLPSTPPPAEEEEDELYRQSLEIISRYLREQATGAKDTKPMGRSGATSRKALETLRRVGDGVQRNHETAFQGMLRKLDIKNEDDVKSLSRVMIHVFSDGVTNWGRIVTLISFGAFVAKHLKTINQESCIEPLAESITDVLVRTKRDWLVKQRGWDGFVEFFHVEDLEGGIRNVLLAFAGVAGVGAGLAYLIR
Compound,IC50,other results
"O=C(O)C(Cc1ccccn1)Nc1ncnc2sc(C(F)F)c(-c3cccc4ccccc34)c12 [Example 250, N-[6-(difluoromethyl)-(5Sa)-5-(naphthalen-1-yl)thieno[2,3-d]pyrimidin-4-yl]-3-pyridin-2-yl-D-alanine]",0.617 µM,–
"CCc1sc2ncnc(N[C@H](Cc3ccccc3)C(=O)O)c2c1-c1cccc2c1c(Cl)cn2CCN1CCCC1 [Example 232, N-((5Ra)-5-{3-chloro-1-[2-(pyrrolidin-1-yl)ethyl]-1H-indol-4-yl}-6-ethyl-thieno[2,3-d]pyrimidin-4-yl)-D-phenylalanine]",–,"percentage fluorescence polarisation inhibition, Mcl-1 FP [1]: 62.2% @ 50 μM"
"CCc1sc2ncnc(N[C@H](Cc3c[nH]cn3)C(=O)O)c2c1-c1cccc2ccccc12 [Example 190, N-[6-ethyl-5-(naphthalen-1-yl)thieno[2,3-d]pyrimidin-4-yl]-D-histidine]",34.6 µM,–
"CCc1sc2ncnc(N[C@H](Cc3ccccc3)C(=O)O)c2c1-c1ccnc(Cl)c1C [Example 77, N-[(5Ra)-5-(2-chloro-3-methylpyridin-4-yl)-6-ethylthieno[2,3-d]pyrimidin-4-yl]-D-phenylalanine]",–,"percentage fluorescence polarisation inhibition, Mcl-1 FP [2]: 75.45% @ 200 μM"
"CCc1sc2ncnc(N[C@@H](Cn3cccn3)C(=O)O)c2c1-c1cccc(Cl)c1C (racemic) [Example 110, N-[5-(3-chloro-2-methylphenyl)-6-ethylthieno[2,3-d]pyrimidin-4-yl]-3-(1H-pyrazol-1-yl)alanine]",0.839 µM,–
"CC(=O)c1sc2ncnc(NC(Cc3ccccc3)C(=O)O)c2c1-c1cccc2ccccc12 [Example 199, N-[6-acetyl-(5Sa)-5-(naphthalen-1-yl)thieno[2,3-d]pyrimidin-4-yl]-D-phenylalanine]",0.298 µM,–
"CCc1sc2ncnc(N[C@H](CC3CCCCC3)C(=O)O)c2c1-c1cccc2[nH]ccc12 (single isomer, unassigned) [Example 242, 3-cyclohexyl-N-[6-ethyl-5-(1H-indol-4-yl)thieno[2,3-d]pyrimidin-4-yl]-D-alanine]",0.091 µM,–
"CCc1sc2ncnc(N[C@H](Cc3ccccc3)C(=O)OC)c2c1-c1cccc2ccccc12 [Example 254, methyl N-[6-ethyl-(5Sa)-5-(naphthalen-1-yl)thieno[2,3-d]pyrimidin-4-yl]-D-phenylalaninate]",–,"percentage fluorescence polarisation inhibition, Mcl-1 FP [2]: 22.08% @ 200 μM"
"Cc1c(Cl)cccc1-c1c(C2CC2)sc2ncnc(NC(Cc3ccccc3)C(=O)O)c12 [Example 216, N-[(5Ra)-5-(3-chloro-2-methylphenyl)-6-cyclopropyl-thieno[2,3-d]pyrimidin-4-yl]-D-phenylalanine]",–,"percentage fluorescence polarisation inhibition, Mcl-1 FP (partial inhibitors, @ 10 μM test compound): 58.95% @ 10 μM"
"CCc1sc2ncnc(NC(Cc3ccc(O)cc3)C(=O)O)c2c1-c1cccc2ccccc12 [Example 172, N-[6-ethyl-(5Ra)-5-(naphthalen-1-yl)thieno[2,3-d]pyrimidin-4-yl]-D-tyrosine]",28.8 µM,–
"CCc1sc2ncnc(N[C@H](Cc3ccccc3OCCCN(C)C)C(=O)O)c2c1-c1cccc(Cl)c1C [Example 157, N-[(5Ra)-5-(3-chloro-2-methylphenyl)-6-ethylthieno[2,3-d]pyrimidin-4-yl]-2-[3-(dimethylamino)propoxy]-D-phenylalanine]",–,"percentage fluorescence polarisation inhibition, Mcl-1 FP [1]: 62.05% @ 50 μM"
"CCc1sc2ncnc(N[C@H](Cc3cccc4ccccc34)C(=O)O)c2c1-c1cccc2ccccc12 (single isomer, unassigned) [Example 186, N-[6-ethyl-5-(naphthalen-1-yl)thieno[2,3-d]pyrimidin-4-yl]-3-naphthalen-1-yl-D-alanine]",7.88 µM,–
"CCc1sc2ncnc(N[C@@H](C(=O)O)c3ccccc3)c2c1-c1cccc2ccccc12 (single isomer, unassigned) [Example 160]",11.7 µM,–
"CCc1sc2ncnc(N[C@H](C(=O)O)[C@H](O)c3ccccc3)c2c1-c1cccc(Cl)c1C [Example 124, (βR)—N-[(5Ra)-5-(3-chloro-2-methylphenyl)-6-ethylthieno[2,3-d]pyrimidin-4-yl]-beta-hydroxy-L-phenylalanine]",–,"percentage fluorescence polarisation inhibition, Mcl-1 FP [1]: 75.7% @ 50 μM"
"CCc1sc2ncnc(N[C@@H](C(=O)O)c3ccccc3-c3ccccc3)c2c1-c1cccc2ccccc12 (single isomer, unassigned) [Example 188]",21.3 µM,–
"CCc1sc2ncnc(N[C@H](Cc3ccccc3C)C(=O)O)c2c1-c1cccc2ccccc12 (single isomer, unassigned) [Example 168, N-[6-ethyl-5-(naphthalen-1-yl)thieno[2,3-d]pyrimidin-4-yl]-2-methyl-D-phenylalanine]",4.78 µM,–
"CCc1sc2ncnc(NC(Cc3cccc(F)c3)C(=O)O)c2c1-c1cccc2ccccc12 [Example 178, N-[6-ethyl-(5Ra)-5-(naphthalen-1-yl)thieno[2,3-d]pyrimidin-4-yl]-3-fluoro-D-phenylalanine]",3.23 µM,–
"CCc1sc2ncnc(N[C@H](Cc3ccccc3OCCN(C)C)C(=O)O)c2c1-c1cccc(Cl)c1C [Example 155, N-[(5Ra)-5-(3-chloro-2-methylphenyl)-6-ethylthieno[2,3-d]pyrimidin-4-yl]-2-[2-(dimethylamino)ethoxy]-D-phenylalanine]",–,"percentage fluorescence polarisation inhibition, Mcl-1 FP [1]: 63.15% @ 50 μM"
"CCc1sc2ncnc(N[C@H](Cc3ccccc3)C(=O)O)c2c1-c1cccc2cnn(C)c12 [Example 89, N-[6-ethyl-(5Ra)-5-(1-methyl-1H-indazol-7-yl)thieno[2,3-d]pyrimidin-4-yl]-D-phenylalanine]",–,"percentage fluorescence polarisation inhibition, Mcl-1 FP [2]: 72.13% @ 200 μM"
"CCc1sc2ncnc(NC(Cc3ccc(F)cc3)C(=O)O)c2c1-c1cccc2ccccc12 [Example 177, N-[6-ethyl-(5Sa)-5-(naphthalen-1-yl)thieno[2,3-d]pyrimidin-4-yl]-4-fluoro-D-phenylalanine]",0.957 µM,–
"CCc1sc2ncnc(N[C@H](Cc3ccccc3)C(=O)O)c2c1-c1cccc2cccnc12 [Example 99, N-[6-ethyl-5-(quinolin-8-yl)thieno[2,3-d]pyrimidin-4-yl]-D-phenylalanine]",–,"inhibition at 200 µM (partial inhibitors, @ 200 μM test compound, read-out: percentage fluorescence polarisation inhibition, Mcl-1 FP): 28.3%"
"CC(=O)c1sc2ncnc(NC(Cc3ccccc3)C(=O)O)c2c1-c1cccc2ccccc12 [Example 200, N-[6-acetyl-(5Ra)-5-(naphthalen-1-yl)thieno[2,3-d]pyrimidin-4-yl]-D-phenylalanine]",5.44 µM,–

# Further lines, with some results ahead:
IC50,Compound,other results
0.309 µM,"CCc1sc2ncnc(NC(Cc3ccccc3OCCN(C)C)C(=O)O)c2c1-c1cccc(Cl)c1C [Example 156, N-[(5Sa)-5-(3-chloro-2-methylphenyl)-6-ethylthieno[2,3-d]pyrimidin-4-yl]-2-[2-(dimethylamino)ethoxy]-D-phenylalanine]",–
0.019 µM,"CCc1sc2ncnc(NC(Cc3ccccc3)C(=O)O)c2c1-c1ccc(OCCO)c(Cl)c1C [Example 56, N-{(5Sa)-5-[3-chloro-4-(2-hydroxyethoxy)-2-methylphenyl]-6-ethylthieno[2,3-d]pyrimidin-4-yl}-D-phenylalanine]",–
2.08 µM,"CCc1sc2ncnc(N[C@H](Cc3ccccc3)C(=O)O)c2c1-c1cccc(O)c1C [Example 67, N-[6-ethyl-5-(3-hydroxy-2-methylphenyl)thieno[2,3-d]pyrimidin-4-yl]-D-phenylalanine]",–
0.258 µM,"CCc1sc2ncnc(NC(Cc3ccccc3)C(=O)O)c2c1-c1cccc2ccn(C)c12 [Example 83, N-[6-ethyl-(5Sa)-5-(1-methyl-1H-indol-7-yl)thieno[2,3-d]pyrimidin-4-yl]-D-phenylalanine]",–
0.487 µM,"CCc1sc2ncnc(N[C@H](Cc3ccccc3)C(=O)O)c2c1-c1cccc2ncccc12 [Example 80, N-[6-ethyl-5-(quinolin-5-yl)thieno[2,3-d]pyrimidin-4-yl]-D-phenylalanine]",–
14 µM,"CCc1sc2ncnc(NC(Cc3ccccc3OCc3cccc(Cl)c3)C(=O)O)c2c1-c1cccc(Cl)c1C [Example 149, 2-[(3-chlorobenzyl)oxy]-N-[(5Ra)-5-(3-chloro-2-methylphenyl)-6-ethylthieno[2,3-d]pyrimidin-4-yl]-D-phenylalanine]",–
0.06 µM,"CCc1sc2ncnc(NC(Cc3ccccc3)C(=O)O)c2c1-c1ccc(OCCN2CCN(C)CC2)c(Cl)c1C [Example 62, N-((5Sa)-5-{3-chloro-2-methyl-4-[2-(4-methylpiperazin-1-yl)ethoxy]phenyl}-6-ethylthieno[2,3-d]pyrimidin-4-yl)-D-phenylalanine]",–
8.84 µM,"CCc1sc2ncnc(NC(Cc3ccccc3)C(=O)O)c2c1-c1cc(Cl)c(OCCN2CCN(C)CC2)c(Cl)c1C [Example 55, N-((5Ra)-5-{3,5-dichloro-2-methyl-4-[2-(4-methylpiperazin-1-yl)ethoxy]phenyl}-6-ethylthieno[2,3-d]pyrimidin-4-yl)-D-phenylalanine]",–
0.02 µM,"CCc1sc2ncnc(NC(Cc3ccccc3)C(=O)O)c2c1-c1cc(Cl)c(O)c(Cl)c1C [Example 53, N-[(5Sa)-5-(3,5-dichloro-4-hydroxy-2-methylphenyl)-6-ethylthieno[2,3-d]pyrimidin-4-yl]-D-phenylalanine]",–
0.092 µM,"CCc1sc2ncnc(NC(Cc3ccccc3)C(=O)O)c2c1-c1ccc(OCCCN(C)C)c(Cl)c1C [Example 60, N-((5Sa)-5-{3-chloro-4-[3-(dimethylamino)propoxy]-2-methylphenyl}-6-ethylthieno[2,3-d]pyrimidin-4-yl)-D-phenylalanine]",–
0.109 µM,"CCc1sc2ncnc(NC(Cc3ccccc3)C(=O)O)c2c1-c1cccc(F)c1C [Example 69, N-[6-ethyl-(5Sa)-5-(3-fluoro-2-methylphenyl)thieno[2,3-d]pyrimidin-4-yl]-D-phenylalanine]",–
